# pIC50: −log10 of the molar value.
# Biological target: T1, human Werner helicase (WRN-BV08, Uniprot Q14191, amino acids 517-1235 with L1074F point mutation) (Homo sapiens, UniProt Q14191, L1074F)
# T1 construct: Uniprot Q14191, amino acids 517-1235 with L1074F point mutation; TEV-cleavable 8×His (C, cleaved yes); made in house; host or cells: Sf9 insect cells (baculovirus)
# Experiment: WRN (BV08) ADP-Glo Assay
# Assay type: biochemical
# Settings: 0.15 nM WRN, 5 μM ATP, 0.1 nM DNA duplex, 15 min preincubation, 60 min at 25° C., pH 7.5, 1% DMSO; read-out: ADP-Glo_hWRN_IC50
# Procedure, shortened: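 Helicase ATPase activity is measured at 25 °C over 60 min using 0.15 nM enzyme, 5 μM ATP and 0.1 nM DNA duplex, final DMSO 1%. ADP production is detected by luminescence, with IC50 derived by curve fitting.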
# T1 sequence (Q14191 with tags, fused parts or gaps L1074F limits assumed): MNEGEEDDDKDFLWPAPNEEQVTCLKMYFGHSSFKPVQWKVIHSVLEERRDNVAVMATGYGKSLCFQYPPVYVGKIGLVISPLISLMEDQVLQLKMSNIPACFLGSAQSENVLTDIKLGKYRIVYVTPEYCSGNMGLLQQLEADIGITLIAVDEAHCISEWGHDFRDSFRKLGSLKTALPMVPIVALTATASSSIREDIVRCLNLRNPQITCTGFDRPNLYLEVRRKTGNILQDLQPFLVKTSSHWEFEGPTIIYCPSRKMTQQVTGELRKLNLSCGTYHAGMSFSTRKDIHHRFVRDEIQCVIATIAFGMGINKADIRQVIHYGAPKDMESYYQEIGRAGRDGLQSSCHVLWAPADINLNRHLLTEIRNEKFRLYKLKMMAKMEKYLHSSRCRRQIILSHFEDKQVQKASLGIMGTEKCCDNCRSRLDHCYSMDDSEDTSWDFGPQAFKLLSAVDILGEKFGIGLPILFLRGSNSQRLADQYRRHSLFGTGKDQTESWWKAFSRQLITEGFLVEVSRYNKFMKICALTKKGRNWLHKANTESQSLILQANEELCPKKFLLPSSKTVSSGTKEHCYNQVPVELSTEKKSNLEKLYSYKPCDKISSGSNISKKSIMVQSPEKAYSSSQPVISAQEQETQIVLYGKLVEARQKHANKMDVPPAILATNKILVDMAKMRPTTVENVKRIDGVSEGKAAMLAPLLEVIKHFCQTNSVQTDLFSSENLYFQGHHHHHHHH
row,pIC50,Structure (SMILES)
1,5.30 to 6.30,"CN(C)C(=O)C(C(=O)N(Cc1nc(C2CC2)cs1)C1C=CS(=O)(=O)C1)c1ccc(S(F)(F)(F)(F)F)cc1 (centres unmarked) [I-107, N′-[(4-cyclopropyl-1,3-thiazol-2-yl)methyl]-N′-(1,1-dioxo-2,3-dihydro-1lambda6-thiophen-3-yl)-N,N-dimethyl-2-[4-(pentafluoro-lambda6-sulfanyl)phenyl]propanediamide]"
2,5.00 to 5.30,"O=C(C1Cc2cc(-n3cccc3)ccc21)N(Cc1ccncc1)C1C=CS(=O)(=O)C1 (centres unmarked) [I-233, N-(1,1-dioxido-2,3-dihydrothiophen-3-yl)-N-(pyridin-4-ylmethyl)-3-(1H-pyrrol-1-yl)bicyclo[4.2.0]octa-1(6),2,4-triene-7-carboxamide]"
3,5.30 to 6.30,"Cc1cccn1-c1ccc(CC(=O)N(Cc2ccnc(CC(C)(C)O)c2)C2C=CS(=O)(=O)C2)c(F)c1 (centres unmarked) [I-139, N-(1,1-dioxo-2,3-dihydro-1lambda6-thiophen-3-yl)-2-[2-fluoro-4-(2-methyl-1H-pyrrol-1-yl)phenyl]-N-{[2-(2-hydroxy-2-methylpropyl)pyridin-4-yl]methyl}acetamide]"
4,> 6.30,"O=C(Cn1cc(-c2ccc(F)cc2)cn1)N(Cc1ccnc(OC(F)F)c1)C1C=CS(=O)(=O)C1 (centres unmarked) [I-662, N-{[2-(difluoromethoxy)pyridin-4-yl]methyl}-N-(1,1-dioxo-2,3-dihydro-1lambda6-thiophen-3-yl)-2-[4-(4-fluorophenyl)-1H-pyrazol-1-yl]acetamide]"
5,5.30 to 6.30,"COc1cc(CN(C(=O)C2Cc3cc(-n4cccc4)ccc32)C2C=CS(=O)(=O)C2)ccn1 (centres unmarked) [I-93, N-(1,1-dioxo-2,3-dihydro-1lambda6-thiophen-3-yl)-N-[(2-methoxypyridin-4-yl)methyl]-3-(1H-pyrrol-1-yl)bicyclo[4.2.0]octa-1,3,5-triene-7-carboxamide]"
6,< 4.30,"CN1CCc2c(ccn2-c2ccc(CC(=O)N(Cc3ccccc3)C3C=CS(=O)(=O)C3)cc2)C1 (centres unmarked) [I-456, N-benzyl-N-(1,1-dioxo-2,3-dihydro-1lambda6-thiophen-3-yl)-2-(4-{5-methyl-1H,4H,5H,6H,7H-pyrrolo[3,2-c]pyridin-1-yl}phenyl)acetamide]"
7,5.30 to 6.30,"COc1cc(CN(C(=O)C(OCCC#N)c2ccc(-c3ccc(F)c(F)c3)cc2F)[C@@H]2C=CS(=O)(=O)C2)ccn1 (single isomer, unassigned) [I-735, (2R*)-2-(2-cyanoethoxy)-N-[(3R)-1,1-dioxo-2,3-dihydro-1lambda6-thiophen-3-yl]-N-[(2-methoxypyridin-4-yl)methyl]-2-{3,3′,4′-trifluoro-[1,1′-biphenyl]-4-yl}acetamide]"
8,5.30 to 6.30,"O=C(Cc1ccc(-n2cccc2)cc1)N(Cc1ccnc(Cl)c1)C1C=CS(=O)(=O)C1 (centres unmarked) [I-160, N-[(2-chloropyridin-4-yl)methyl]-N-(1,1-dioxo-2,3-dihydro-1lambda6-thiophen-3-yl)-2-[4-(1H-pyrrol-1-yl)phenyl]acetamide]"
9,5.30 to 6.30,"O=C(Cc1ccc(-n2cccc2)cc1Cl)N(Cc1ccncc1)C1C=CS(=O)(=O)C1 (centres unmarked) [I-208, 2-[2-chloro-4-(1H-pyrrol-1-yl)phenyl]-N-(1,1-dioxo-2,3-dihydro-1lambda6-thiophen-3-yl)-N-[(pyridin-4-yl)methyl]acetamide]"
10,< 4.30,"COc1cc(CN(C(=O)Cc2ccc(-c3ccc(F)c(F)c3)cc2F)C2C=CS(=O)(=O)C2)ccn1 (single isomer, unassigned) [I-400]"
11,< 4.30,"Cc1nn(CC(=O)N(Cc2ccncc2)C2C=CS(=O)(=O)C2)cc1-c1ccccc1 (centres unmarked) [I-446, N-(1,1-dioxo-2,3-dihydro-1lambda6-thiophen-3-yl)-2-(3-methyl-4-phenyl-1H-pyrazol-1-yl)-N-[(pyridin-4-yl)methyl]acetamide]"
12,5.30 to 6.30,"CC(C)(O)c1cc(CN(C(=O)Cn2cc(-c3ccccc3F)cn2)C2C=CS(=O)(=O)C2)ccn1 (centres unmarked) [I-108, N-(1,1-dioxo-2,3-dihydro-1lambda6-thiophen-3-yl)-2-[4-(2-fluorophenyl)-1H-pyrazol-1-yl]-N-{[2-(2-hydroxypropan-2-yl)pyridin-4-yl]methyl}acetamide]"
13,< 4.30,"O=C(C1CC(Cc2ccccc2)=NO1)N(Cc1ccncc1)C1C=CS(=O)(=O)C1 (centres unmarked) [I-579, 3-benzyl-N-(1,1-dioxo-2,3-dihydro-1lambda6-thiophen-3-yl)-N-[(pyridin-4-yl)methyl]-4,5-dihydro-1,2-oxazole-5-carboxamide]"
14,< 4.30,"O=C(N(Cc1ccncc1)C1C=CS(=O)(=O)C1)C12CC(c3cccc(C(F)(F)F)c3)(C1)C2F (centres unmarked) [I-586, N-(1,1-dioxo-2,3-dihydro-1lambda6-thiophen-3-yl)-2-fluoro-N-[(pyridin-4-yl)methyl]-3-[3-(trifluoromethyl)phenyl]bicyclo[1.1.1]pentane-1-carboxamide]"
15,> 6.30,"O=C(Cc1ccc(S(F)(F)(F)(F)F)cc1)N(Cc1nc(C2CC2)cs1)C1C=CS(=O)(=O)C1 (single isomer, unassigned) [I-4]"
16,5.30 to 6.30,"CC(C)(O)c1cc(CN(C(=O)C(OCC2CC(F)(F)C2)c2ccc(-c3ccc(F)c(F)c3)cc2F)[C@@H]2C=CS(=O)(=O)C2)ccn1 (stereo in doubt) [I-792, rel-2-[(3,3-difluorocyclobutyl)methoxy]-N-[(3R)-1,1-dioxo-2,3-dihydro-1lambda6-thiophen-3-yl]-N-{[2-(2-hydroxypropan-2-yl)pyridin-4-yl]methyl}-2-{3,3′,4′-trifluoro-[1,1′-biphenyl]-4-yl}acetamide]"
17,5.00 to 5.30,"O=C(Cc1ncc(-n2cccc2)s1)N(Cc1ccncc1)C1C=CS(=O)(=O)C1 (centres unmarked) [I-279, N-(1,1-dioxo-2,3-dihydro-1lambda6-thiophen-3-yl)-N-[(pyridin-4-yl)methyl]-2-[5-(1H-pyrrol-1-yl)-1,3-thiazol-2-yl]acetamide]"
18,< 4.30,"O=C(Cc1ccc(-c2ccc(F)cc2)c(C(F)F)c1)N(Cc1ccncc1)C1C=CS(=O)(=O)C1 (centres unmarked) [I-401, 2-[2-(difluoromethyl)-4′-fluoro-[1,1′-biphenyl]-4-yl]-N-(1,1-dioxo-2,3-dihydro-1lambda6-thiophen-3-yl)-N-[(pyridin-4-yl)methyl]acetamide]"
19,4.30 to 5.00,"O=C(Cc1ccc(-n2ccc3ccccc32)cc1)N(Cc1ccncc1)C1C=CS(=O)(=O)C1 (centres unmarked) [I-305, N-(1,1-dioxo-2,3-dihydro-1lambda6-thiophen-3-yl)-2-[4-(1H-indol-1-yl)phenyl]-N-[(pyridin-4-yl)methyl]acetamide]"
20,5.00 to 5.30,"COC(C(=O)N(Cc1nc(C(C)(C)O)cs1)C1C=CS(=O)(=O)C1)c1ccc(-c2ccc(F)c(F)c2)cc1F (single isomer, unassigned) [I-747, (2R*)-N-[(3R**)-1,1-dioxo-2,3-dihydro-1lambda6-thiophen-3-yl]-N-{[4-(2-hydroxypropan-2-yl)-1,3-thiazol-2-yl]methyl}-2-methoxy-2-{3,3′,4′-trifluoro-[1,1′-biphenyl]-4-yl}acetamide]"
21,4.30 to 5.00,"O=C(Cc1ccc(-n2cccc2)cc1)N(Cc1cccnc1)C1C=CS(=O)(=O)C1 (centres unmarked) [I-358, N-(1,1-dioxo-2,3-dihydro-1lambda6-thiophen-3-yl)-N-[(pyridin-3-yl)methyl]-2-[4-(1H-pyrrol-1-yl)phenyl]acetamide]"
22,< 4.30,"Cc1ccc(-c2ccc(CC(=O)N(Cc3ccncc3)C3C=CS(=O)(=O)C3)cc2)cc1 (centres unmarked) [I-470, N-(1,1-dioxo-2,3-dihydro-1lambda6-thiophen-3-yl)-2-{4′-methyl-[1,1′-biphenyl]-4-yl}-N-[(pyridin-4-yl)methyl]acetamide]"
23,> 6.30,"Cc1cccn1-c1ccc(CC(=O)N(Cc2ccnc(OCC(F)(F)F)c2)C2C=CS(=O)(=O)C2)c(F)c1 (centres unmarked) [I-67, N-(1,1-dioxo-2,3-dihydro-1lambda6-thiophen-3-yl)-2-[2-fluoro-4-(2-methyl-1H-pyrrol-1-yl)phenyl]-N-{[2-(2,2,2-trifluoroethoxy)pyridin-4-yl]methyl}acetamide]"
24,5.00 to 5.30,"NCCc1cccn1-c1ccc(CC(=O)N(Cc2ccccc2)C2C=CS(=O)(=O)C2)cc1 (centres unmarked) [I-268, 2-{4-[2-(2-aminoethyl)-1H-pyrrol-1-yl]phenyl}-N-benzyl-N-(1,1-dioxo-2,3-dihydro-1lambda6-thiophen-3-yl)acetamide]"
25,< 4.30,"O=C(Cc1ccc(-n2cccc2)cc1)N(Cc1ccc2cc[nH]c2c1)C1C=CS(=O)(=O)C1 (centres unmarked) [I-499, N-(1,1-dioxo-2,3-dihydro-1lambda6-thiophen-3-yl)-N-[(1H-indol-6-yl)methyl]-2-[4-(1H-pyrrol-1-yl)phenyl]acetamide]"
26,4.30 to 5.00,"Cc1cnccc1CN(C(=O)Cc1ccc(-n2cccc2)cc1)C1C=CS(=O)(=O)C1 (centres unmarked) [I-313, N-(1,1-dioxo-2,3-dihydro-1lambda6-thiophen-3-yl)-N-[(3-methylpyridin-4-yl)methyl]-2-[4-(1H-pyrrol-1-yl)phenyl]acetamide]"
27,5.30 to 6.30,"O=C(Cc1ccc(-n2cccc2)cc1)N(Cc1nc(-c2cccnc2)cs1)C1C=CS(=O)(=O)C1 (centres unmarked) [I-146, N-(1,1-dioxo-2,3-dihydro-1lambda6-thiophen-3-yl)-N-{[4-(pyridin-3-yl)-1,3-thiazol-2-yl]methyl}-2-[4-(1H-pyrrol-1-yl)phenyl]acetamide]"
28,5.30 to 6.30,"Cc1cccn1-c1ccc(C(C(=O)N(C)C)C(=O)N(Cc2ccnc(C(C)(C)O)c2)C2C=CS(=O)(=O)C2)c(F)c1 (centres unmarked) [I-174, N-(1,1-dioxo-2,3-dihydro-1lambda6-thiophen-3-yl)-2-[2-fluoro-4-(2-methyl-1H-pyrrol-1-yl)phenyl]-N-{[2-(2-hydroxypropan-2-yl)pyridin-4-yl]methyl}-N′,N′-dimethylpropanediamide]"
29,5.00 to 5.30,"O=C(Cc1ccc(-n2cccc2)cc1)N(Cc1cccc(F)c1)C1C=CS(=O)(=O)C1 (centres unmarked) [I-270, N-(1,1-dioxo-2,3-dihydro-1lambda6-thiophen-3-yl)-N-[(3-fluorophenyl)methyl]-2-[4-(1H-pyrrol-1-yl)phenyl]acetamide]"

# Reference: patent US20260297070A1, “CYCLIC [COMPOUND LEFT OUT] WRN INHIBITORS” (Nimbus Wadjet, Inc., priority 2023, published 2026)
